Assay results published in patent US20250099420A1, “SMALL MOLECULE MODULATORS OF GPR139 COMPLEX” (University of Florida Research Foundation, Incorporated, priority 2022, published 2025).

How the values were obtained:
parental HEK cells = experiment: HEK parental Antagonist Counterscreen Assay (non-transfected cells, acetylcholine control); type: cell-based; conditions: for EC50: Homo sapiens, HEK293, acetylcholine as control, scientific notation, molarity
Text: C. […] The HEK parental counterscreen utilized the same cells but not transfected with the plasmid. The agonist and antagonist modes were run the same way as the primary screen but acetylcholine was used in place of GPR139 agonist as the control compound.
The HEK parental counterscreen utilized the same cells but not transfected with the plasmid. The antagonist modes assays utilized the cells being plated in the 1536 well plate overnight in growth media prior to dye loading in PDL coated plates and acetylcholine was used in place of GPR139 agonist as the control compound.
(§1) The HEK parental counterscreen utilized the same cells but not transfected with the plasmid. Acetylcholine was used in place of GPR139 agonist as the control compound. The cells were plated overnight, similar to the HEK antagonist counterscreen protocol.
The HEK parental counterscreens utilized the same cells but not transfected with the plasmid. Acetylcholine was used in place of GPR139 agonist as the control compound. The cells were plated overnight, similar to the HEK antagonist counterscreen protocol.
(§2) For each test compound, percent activation was plotted against compound concentration. A four parameter equation describing a sigmoidal dose-response curve was then fitted with adjustable baseline using Assay Explorer software (Symyx Technologies Inc.).

GPR139 [1] = molecular target: T1, GPR139 (Homo sapiens, UniProt Q6DWJ6); experiment: [3H]JNJ-63533054 radioligand competition binding assay on membranes of HEK293T/17 cells; set-up: HA signal peptide (HASP) (N); expressed in transfected cells; host or cells: HEK293T/17 cells (membrane preparation); conditions: for inhibition at 10 µM: 10 μM of the indicated compound, (10 μM) JNJ-63533054 as printed in title; for Ki: Ki=IC50/(1+C/Kd), membranes of HEK293T/17 cells expressing human GPR139, read-out: Ki ± SEM
T1 sequence (Q6DWJ6 1-353): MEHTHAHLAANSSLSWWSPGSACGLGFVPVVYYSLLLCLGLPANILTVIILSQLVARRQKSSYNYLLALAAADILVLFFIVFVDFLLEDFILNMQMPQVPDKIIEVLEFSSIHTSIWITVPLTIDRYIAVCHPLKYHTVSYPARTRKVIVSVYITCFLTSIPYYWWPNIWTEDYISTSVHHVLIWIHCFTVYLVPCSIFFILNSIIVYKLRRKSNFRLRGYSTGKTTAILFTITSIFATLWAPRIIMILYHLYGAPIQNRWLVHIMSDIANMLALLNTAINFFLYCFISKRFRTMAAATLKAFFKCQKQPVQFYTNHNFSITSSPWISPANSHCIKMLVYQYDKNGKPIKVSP
Text: Eighteen compounds were selected for additional study. The compounds were re-synthesized and tested in radioligand binding competition assays for their ability to displace [^3H]-labeled reference agonist JNJ-63533054 on GPR139. The GPR139 construct used (pCDNA3.1-HASP-HA-GPR139) contained an N-terminal HA signal peptide (HASP), followed by an HA tag and human GPR139 (NM_001002911.4). HEK293T/17 cells were maintained in Dulbecco's modified Eagle's medium with 10% (v/v) fetal bovine serum, nonessential amino acids, and 1 mM sodium pyruvate.
Competition binding assay: Radioligand binding assay used human GPR139 expressed in HEK293T/17 cells. HEK293T/17 cells were transfected pCDNA3.1-HASP-HA-GPR139. 48 h after, cells were detached from plates by pipetting with PBS, centrifuged at 500×g for 5 min, and then the fluid was aspirated away. The cell pellets were frozen with liquid nitrogen and stored at −80° C. Pellets were homogenized in TE buffer (50 mM Tris-HCl, pH 7.4, 5 mM EDTA) and centrifuged at 1000×g at 4° C. for 5 min. Supernatant was collected and recentrifuged at 30,000×g at 4° C. for 30 min. The pellet was rehomogenized in TE buffer and incubated for 60 minutes at room temperature with eight concentrations of [^3H]JNJ-63533054 (specific activity 24.7 Ci/mmol) ranging from 0.024 nM to 400 nM. The binding reaction was terminated by filtration through GF/C filter (Waterman) followed by washes with cold TE buffer. Filters were dried in a hood overnight followed by the addition of scintillation fluid. Bound radioactivity was counted on a Hidex 600 liquid scintillation counter. […] Nonspecific binding was determined with 10 μM JNJ-63533054. The Kd values of the radioligands and IC50 of the antagonist were calculated by Graphpad Prism. Ki values were calculated as Ki=IC50/(1+C/Kd), where C is concentration of the radioligand.
Various concentrations of selected ligands were then added in the presence of 10 nM [^3H]-JNJ-63533054 and their ability to displace [^3H]labeling on cellular membranes was assessed. FIGS. 3B and 3C present representative data obtained in these experiments. […] The results of these experiments are presented in the Table 3 and confirm selective binding the compounds to GPR139 thereby validating their interaction with the intended target.

GPR139 [2] = molecular target: T1, GPR139; experiment: GPR139 Antagonist titration assay (calcium detection, HEK-GPR139 cells, vs EC80 of S-JNJ-63533054); conditions: for GPR139 Antagonist Activity Averaged Max % Response (±St. Dev.): activity relative to known control; for GPR139 Antagonist Activity Lipophilic Efficiency (logD): based on logD; for GPR139 Antagonist Activity Lipophilic Efficiency (logP): based on logP; for GPR139 Antagonist Activity Hill Slope: fitted dose-response curve
Protocol: GPR activity was assessed using a calcium detection assay. GPR139 agonists stimulate an increase in intracellular calcium in HEK-GPR139 cells. Agonists increase the release of intracellular calcium, while antagonists decrease the release of intracellular calcium, as compared to an EC80 stimulation of the know agonist S-JNJ-63533054. The positive control for the agonist mode was cells treated with EC100 of known agonist S-JNJ-63533054. Negative control samples were treated with DMSO. The antagonist high control in cells was EC80 of S-JNJ-63533054+IC100 S-JNJ-3792165, while cells were treated with EC80 of S-JNJ-63533054+DMSO for the low control. Intracellular calcium was measured using Calcium 5.
HEK cells were transfected the DNA encoding GPR139 and incubated for 24 hours. 3000 cells/well in 3 μL HEPES and 1% DMSO were seeded into 1536-well plates. 3 μL Calcium 5 was then added to each well and cells were incubated for 60 min. at 37° C. in 5% CO2 and 95% relative humidity. Cells were pretreated with 50 nL DMSO (5 min. at room temperature in the dark) to stabilize response and desensitize cells to DMSO. A 5 second basal read was recorded and compounds in 30 nL were added to the cells, followed by a 150 second read.
B. Antagonist Mode: The “High Control” represented wells containing cells with GPR139+Antagonist IC100+Agonist EC80. “Low Control” represented wells containing cells with GPR139 with EC100 Agonist. “0% control” and sample field represented wells containing cells with GPR139 with EC80 Agonist with DMSO or compounds. The Z′ and S:B for this assay were calculated using the High Control and Low Control wells.
as §1
The GPR139 Agonist and Antagonist titration assays employed the same reagents, protocols, and detection systems as the primary assays, but tested each as 10 point dose response starting at 676 nM concentration in triplicate with 1:3 dilutions. The HEK parental counterscreens utilized the same cells but not transfected with the plasmid. Acetylcholine was used in place of GPR139 agonist as the control compound. The cells were plated overnight, similar to the HEK antagonist counterscreen protocol.
as §2

GPR139 [3] = molecular target: T1, GPR139; experiment: GPR139 Agonist titration / agonist counterscreen assay (calcium detection, HEK-GPR139 cells); type: cell-based; set-up: expressed in transfected cells; host or cells: HEK Aequorin cells, Maxcyte transient transfection; conditions: agonist counterscreen of the antagonists; for EC50: scientific notation, molarity, read-out: GRP139 Agonist activity EC50
Protocol: GPR activity was assessed using a calcium detection assay. […] Negative control samples were treated with DMSO. […] Intracellular calcium was measured using Calcium 5.

| inhibition at 10 µM (GPR139 [1]) [%] | Ki (GPR139 [1]) [µM] | EC50 (GPR139 [2]) [µM] | GPR139 Antagonist Activity Ligand Efficiency (GPR139 [2]) | GPR139 Antagonist Activity Averaged Max % Response (±St. Dev.) (GPR139 [2]) [%] | GPR139 Antagonist Activity Lipophilic Efficiency (logD) (GPR139 [2]) | GPR139 Antagonist Activity Lipophilic Efficiency (logP) (GPR139 [2]) | GPR139 Antagonist Activity Hill Slope (GPR139 [2]) | GRP139 Agonist activity Averaged Max % Response (±St. Dev.) (GPR139 [3]) | EC50 (GPR139 [3]) [µM] | SMILES | HEK antagonist activity Averaged Max % Response (±St. Dev.) (parental HEK cells) [%] | EC50 (parental HEK cells) [µM] |
| --- | --- | --- | --- | --- | --- | --- | --- | --- | --- | --- | --- | --- |
| 102 ± 4.88 | 0.98 ± 0.02 | 7.8 | 0.23 | 67.9 ± 10.41 | 0.44 | 0.44 | 1.28 | 0.45 ± 5.31% | > 11.7 | CCOC(=O)c1c(C)nc2c(c1-c1ccc(F)cc1)C(=O)CC(c1ccc(Cl)cc1)C2 (stereo not drawn) [SR-01000419112] | 18.74 ± 4.66 | > 11.7 |
| 22 ± 2.59 | 13.3 ± 0.3 | 8.7 | 0.32 | 79.69 ± 2.61 | 1.04 | 1.04 | 1.19 | −2.6E+0 ± 5.95 ^ % | > 16.2 | CC(=O)N1N=C(c2ccc(C)cc2)CC1c1ccccc1Cl (stereo not drawn) [SR-01000462122] | 17.80 ± 3.32 | > 16.2 |
| 87.2 ± 2.37 | 3.05 ± 0.07 | 7.7 | 0.26 | 64.21 ± 3.85 | 0.51 | 0.36 | −1.40 | 16.98 ± 6.81% | > 14.1 | CC1CCCC(NC(=O)c2cccc(NS(=O)(=O)c3ccc(Br)cc3)c2)C1C (stereo not drawn) [SR-01000594343] | 10.38 ± 17.91 | > 14.1 |
| 59.3 ± 7.51 | 4.91 ± 1.1 | 2.1 | 0.31 | 84.30 ± 2.68 | 1.99 | 1.99 | 0.99 | 4.67 ± 4.93% | > 14.1 | O=C(CS(=O)(=O)c1ccccc1)Nc1ccc(Oc2ccccc2)cc1 [SR-01000263867] | 20.24 ± 7.73 | > 14.1 |
| 65 ± 3.44 | 1.81 ± 0.04 | 7.2 | 0.26 | 74.1 ± 13.55 | 0.17 | 0.17 | 1.98 | 10.58 ± 2.83% | > 9.8 | CCOC(=O)C(CC)Oc1ccc2c(C)c(Cc3ccccc3)c(=O)oc2c1 (stereo not drawn) [SR-01000421299] | 7.76 ± 14.27 | > 9.8 |
| 21.8 ± 14.1 | 0.92 ± 0.02 | 8.6 | 0.28 | 80.63 ± 3.57 | 1.63 | 0.55 | 0.70 | 1.17 ± 6.37% | > 14.7 | Nc1cccc(C(=O)Nc2cc(O)n(-c3c(Cl)cc(Cl)cc3Cl)n2)c1 [SR-01000514922] | 16.24 ± 5.67 | > 14.7 |
| 72.2 ± 2.78 | 1.06 ± 0.02 | 6 | 0.29 | 72.33 ± 6.63 | 1.70 | 1.56 | 1.00 | 7.64 ± 5.47% | > 14.1 | COc1ccc(-c2cccc(NS(=O)(=O)c3ccc(I)cc3)c2)nn1 [SR-01000914310] | 26.24 ± 12.88 | > 14.1 |

The next lines start with the molecule.

| SMILES | inhibition at 10 µM (GPR139 [1]) [%] | Ki (GPR139 [1]) [µM] | EC50 (GPR139 [2]) [µM] | GPR139 Antagonist Activity Ligand Efficiency (GPR139 [2]) | GPR139 Antagonist Activity Averaged Max % Response (±St. Dev.) (GPR139 [2]) [%] | GPR139 Antagonist Activity Lipophilic Efficiency (logD) (GPR139 [2]) | GPR139 Antagonist Activity Lipophilic Efficiency (logP) (GPR139 [2]) | GPR139 Antagonist Activity Hill Slope (GPR139 [2]) | GRP139 Agonist activity Averaged Max % Response (±St. Dev.) (GPR139 [3]) | EC50 (GPR139 [3]) [µM] | HEK antagonist activity Averaged Max % Response (±St. Dev.) (parental HEK cells) [%] | EC50 (parental HEK cells) [µM] |
| --- | --- | --- | --- | --- | --- | --- | --- | --- | --- | --- | --- | --- |
| CCOC(=O)c1ccc2nc(C)c3c(c2c1)OC(C(C)(Cl)Br)C3 (stereo not drawn) [SR-01000220077] | 77.8 ± 5 | 7.31 ± 0.16 | 4.7 | 0.32 | 82.15 ± 3.63 | 1.23 | 1.20 | 0.74 | 29.53 ± 3.67% | > 14.1 | 5.29 ± 23.62 | > 14.1 |
| Cc1cccc(NC(=O)CCC(=O)OCc2ccc(Br)cc2)c1 [SR-01000258561] | 35.6 ± 21.2 | 7.14 ± 0.16 | 2.3 | 0.34 | 102.3 ± 0.93 | 1.45 | 1.45 | 1.14 | 45.23 ± 2.15% | > 14.1 | 50.40 ± 13.43 | 13.8 |
| O=C(CCCC(=O)OCC(Cl)=C(Cl)Cl)Nc1ccccc1F [SR-01000195221] | 77.7 ± 1.19 | 9.98 ± 0.23 | 6.3 | 0.33 | 86.87 ± 1.46 | 1.71 | 1.71 | 0.88 | 3.53 ± 6.53% | > 14.1 | 28.17 ± 14.51 | > 14.1 |
| COc1ccc(-c2noc(CN3CCCN(c4ccc(F)cc4)CC3)n2)c(OC)c1OC [SR-01000169333] | 64.5 ± 1.23 | 4.09 ± 0.09 | 8.4 | 0.22 | 66.19 ± 8.60 | 1.64 | 1.37 | 1.11 | 2.42 ± 7.61% | > 14.1 | 9.54 ± 10.14 | > 14.1 |
| Cc1cc(I)ccc1NC(=O)CSc1cccs1 [SR-01000253143] | 54.3 ± 5.98 | 0.13 ± 0.01 | 4.3 | 0.42 | 63.84 ± 2.29 | 0.78 | 0.78 | 0.87 | 4.38 ± 3.28% | > 14.1 | 22.82 ± 1.84 | > 14.1 |
